Results on 13 compounds are retold here after PubChem BioAssay (NCI).

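Results reflect a 48-hour exposure of cells in 96-well plates to compound at five concentrations. GI50 is the concentration that inhibits growth by half. At the TGI there is no net growth.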

Among the test systems are TK-10 renal; PC-3 prostate; SK-MEL-28 melanoma; NCI-H23 lung; NCI-H460 lung; OVCAR-4 ovarian; CAKI-1 renal; CCRF-CEM leukemia; A498 renal; 786-0 renal.
Assay in all cases: inhibition of tumour cell growth, NCI panel, 48 h

On to `COC(=O)CCC(=O)c1c(C)[nH]c(/C=C2\N=C(c3ccc[nH]3)C=C2OC)c1C`, for which the GI50 with TK-10 renal was 1.18 µM; in the assay on PC-3 prostate, 0.647 µM; with SK-MEL-28 melanoma it was 1.27 µM; with NCI-H23 lung it was 1.79 µM; in the assay with NCI-H460 lung, 6860 nM; in the assay with OVCAR-4 ovarian it was 2.12 µM. The GI50 is 869 nM in the assay with CAKI-1 renal, 0.199 µM in the assay on CCRF-CEM leukemia, 7.86 µM in the assay on A498 renal and 552 nM in the assay with 786-0 renal. The TGI in the assay on TK-10 renal came to 7.74 µM; in the assay with PC-3 prostate, 2.14 µM; in the assay with SK-MEL-28 melanoma, 3.18 µM; with NCI-H23 lung it was 4.7 µM; with NCI-H460 lung, 40.9 µM; with OVCAR-4 ovarian, 17 µM. In addition, the TGI with CAKI-1 renal is 2.95 µM; with CCRF-CEM leukemia it was 2.37 µM; in the assay with A498 renal, 20.7 µM; in the assay on 786-0 renal, 1.82 µM.
With `COc1ccc2c(c1)c(C1(c3cn(C)c4ccc(OC)cc34)C(=O)Nc3ccc(F)cc31)cn2C`, the GI50 is 3.88 µM in the assay on PC-3 prostate; 5.3 µM in the assay on SK-MEL-28 melanoma; 6.06 µM in the assay with NCI-H23 lung; 3650 nM in the assay with NCI-H460 lung; 3.92 µM in the assay with OVCAR-4 ovarian; 2060 nM in the assay on CAKI-1 renal. For the same compound, the GI50 in the assay with CCRF-CEM leukemia was 4.56 µM; in the assay on A498 renal, 13.6 µM; in the assay on 786-0 renal, 6510 nM. Also, the TGI with PC-3 prostate is > 100 µM; in the assay on SK-MEL-28 melanoma it was 25.5 µM; in the assay with NCI-H23 lung, > 100 µM; with NCI-H460 lung, 14.6 µM; in the assay on OVCAR-4 ovarian, > 100 µM; in the assay on CAKI-1 renal, 45.3 µM. Also, the values for the TGI in the assay on CCRF-CEM leukemia, in the assay with A498 renal and in the assay with 786-0 renal were > 100 µM, 75.3 µM and > 100 µM, respectively.
For the compound `CCCN(CCC)c1ccc(CO)c(C)c1`, the GI50 was 13.8 µM in the assay on TK-10 renal; 17.4 µM with PC-3 prostate; > 100 µM in the assay on SK-MEL-28 melanoma; 35.4 µM in the assay on NCI-H23 lung; > 100000 nM with NCI-H460 lung; 11.3 µM with OVCAR-4 ovarian. Further, the GI50 with CAKI-1 renal is 38800 nM; with CCRF-CEM leukemia, 17.7 µM; in the assay on A498 renal, 1.09 µM; with 786-0 renal, > 100000 nM. In addition, the TGI in the assay on TK-10 renal was 61 µM; with PC-3 prostate, 57.6 µM; with SK-MEL-28 melanoma, > 100 µM; in the assay with NCI-H23 lung, > 100 µM; in the assay with NCI-H460 lung it was > 100 µM; in the assay on OVCAR-4 ovarian, 25.3 µM. The TGI is > 100 µM in the assay with CAKI-1 renal, 59.9 µM in the assay on CCRF-CEM leukemia, 3.64 µM in the assay on A498 renal and > 100 µM with 786-0 renal.
Take `CCC[C@H](N[C@@H]1CCc2cc(F)cc(F)c2C1)C(=O)Nc1cn(C(C)(C)CNCC(C)(C)C)cn1`: the GI50 was 21.8 µM in the assay on TK-10 renal; 7.63 µM with PC-3 prostate; 15.1 µM in the assay on SK-MEL-28 melanoma; 17.3 µM in the assay with NCI-H23 lung; 19500 nM in the assay with NCI-H460 lung; 23.5 µM with OVCAR-4 ovarian. In addition, the GI50 with CAKI-1 renal was 5940 nM; in the assay on CCRF-CEM leukemia, 14.7 µM; in the assay with A498 renal, 7.41 µM; with 786-0 renal, 13500 nM. For the same compound, the TGI in the assay on TK-10 renal is 72.7 µM; in the assay on PC-3 prostate it was 79.2 µM; in the assay with SK-MEL-28 melanoma, 33.9 µM; with NCI-H23 lung it was > 89.9 µM; in the assay with NCI-H460 lung, 53.8 µM; in the assay with OVCAR-4 ovarian, > 100 µM. Also, the TGI with CAKI-1 renal is 29 µM; with CCRF-CEM leukemia, > 63.6 µM; in the assay on A498 renal, 42.9 µM; in the assay on 786-0 renal, 54.2 µM.
For the compound `CN1CCN(c2ccc3nc(-c4cc(C(C)(C)C)c(O)c(C(C)(C)C)c4)[nH]c3c2)CC1`, the GI50 in the assay on TK-10 renal was 4.79 µM; with PC-3 prostate, 1.92 µM; in the assay with SK-MEL-28 melanoma, 1.91 µM; in the assay with NCI-H23 lung it was 3.31 µM; in the assay on NCI-H460 lung it was 1990 nM; in the assay with OVCAR-4 ovarian, 5.43 µM. The GI50 with CAKI-1 renal is 1750 nM; in the assay with CCRF-CEM leukemia, 2.22 µM; in the assay with A498 renal, 7.23 µM; in the assay with 786-0 renal it was 1820 nM. Moreover, the TGI in the assay with TK-10 renal amounted to 17.2 µM; with PC-3 prostate, 4.17 µM; in the assay on SK-MEL-28 melanoma, 3.4 µM; in the assay with NCI-H23 lung it was 10.3 µM; in the assay on NCI-H460 lung, 3.7 µM; in the assay with OVCAR-4 ovarian, 19 µM. For the same compound, the TGI with CAKI-1 renal was 3.49 µM; with CCRF-CEM leukemia, 5.83 µM; in the assay on A498 renal, 21.2 µM; in the assay on 786-0 renal it was 3.5 µM.
With `CCC(Sc1nnc2c3ccccc3n(CC)c2n1)C(=O)Nc1ccccc1OC` (centres undefined), the GI50 in the assay with TK-10 renal is > 100 µM; in the assay with PC-3 prostate, 59.3 µM; with SK-MEL-28 melanoma, > 100 µM; in the assay with NCI-H23 lung, 3.41 µM; with NCI-H460 lung it was > 100000 nM; in the assay on OVCAR-4 ovarian, > 75.7 µM. The GI50 with CAKI-1 renal is 760 nM; in the assay on CCRF-CEM leukemia, > 94.9 µM; with A498 renal it was 2.2 µM; with 786-0 renal, > 100000 nM. The TGI in the assay on TK-10 renal, with PC-3 prostate, in the assay on SK-MEL-28 melanoma, with NCI-H23 lung, in the assay on NCI-H460 lung and in the assay with OVCAR-4 ovarian was > 100 µM in each case. Moreover, the TGI in the assay on CAKI-1 renal was 5.32 µM; in the assay with CCRF-CEM leukemia it was > 100 µM; in the assay with A498 renal, 6.77 µM; in the assay with 786-0 renal it was > 100 µM.
Take `CC(=O)O[C@@H]1CO[C@H]2O[C@H]3[C@@H](C(C=O)=C[C@H](O)[C@@H]4C5=C(C(C)C)CC[C@]5(C)CC[C@@]34C)[C@@]2(O)C1=O`: the TGI with TK-10 renal amounted to 0.596 µM; in the assay on PC-3 prostate, 0.368 µM; in the assay with SK-MEL-28 melanoma, 0.771 µM; in the assay on NCI-H23 lung it was 0.893 µM; with NCI-H460 lung, 0.699 µM; in the assay with OVCAR-4 ovarian, 0.943 µM. The TGI with CAKI-1 renal was 0.486 µM; in the assay on CCRF-CEM leukemia, 0.418 µM; in the assay with A498 renal, 1.96 µM; in the assay with 786-0 renal, 0.253 µM.
For the compound `CCCCCCCCCCCCCCCC(=O)OCC(O)C1OC(=O)C(O)=C1O` (centres undefined), the TGI in the assay with PC-3 prostate is > 100 µM; in the assay with SK-MEL-28 melanoma, 41.4 µM; with NCI-H23 lung, 96.3 µM; in the assay on NCI-H460 lung, > 100 µM; with OVCAR-4 ovarian, > 100 µM; in the assay on CAKI-1 renal it was 96.6 µM. Further, the results for the TGI in the assay with CCRF-CEM leukemia, in the assay with A498 renal and with 786-0 renal were 47.5 µM, 77 µM and 38.8 µM, respectively.
With `CC(=O)OC1COC(S[As](C)C)C(OC(C)=O)C1OC(C)=O` (centres undefined), the GI50 with TK-10 renal is 0.08 µM; with PC-3 prostate, 0.164 µM; in the assay on SK-MEL-28 melanoma, 0.666 µM; in the assay with NCI-H23 lung, 0.322 µM; in the assay on NCI-H460 lung, 1050 nM; in the assay with OVCAR-4 ovarian, 2.53 µM. In addition, the GI50 in the assay with CAKI-1 renal is 41 nM; in the assay on CCRF-CEM leukemia, 0.0444 µM; in the assay on A498 renal, 0.285 µM; in the assay on 786-0 renal, 81.1 nM. In addition, the TGI amounted to 0.832 µM in the assay on TK-10 renal; 2.04 µM in the assay with PC-3 prostate; 8.89 µM with SK-MEL-28 melanoma; 4.53 µM in the assay on NCI-H23 lung; 14.5 µM with NCI-H460 lung; 24 µM in the assay with OVCAR-4 ovarian. In addition, the TGI stood at 0.74 µM with CAKI-1 renal, 0.152 µM with CCRF-CEM leukemia, 1.56 µM in the assay on A498 renal and 1.12 µM with 786-0 renal.
As to `CCCCC(=O)N/N=C/c1cc(I)cc(I)c1O`, the GI50 is 3.35 µM with PC-3 prostate; 2.85 µM with SK-MEL-28 melanoma; 2250 nM with NCI-H460 lung; 0.918 µM in the assay on OVCAR-4 ovarian; 1580 nM in the assay with CAKI-1 renal; 1.23 µM in the assay on CCRF-CEM leukemia. Besides, the GI50 is 13.8 µM in the assay with A498 renal and 3390 nM in the assay on 786-0 renal. Moreover, the TGI stood at 20.9 µM in the assay with PC-3 prostate; 17.3 µM with SK-MEL-28 melanoma; 15.5 µM with NCI-H460 lung; 12.7 µM in the assay on OVCAR-4 ovarian; 10.5 µM with CAKI-1 renal; 12.5 µM in the assay with CCRF-CEM leukemia. Also, the TGI with A498 renal was determined as 44.2 µM; in the assay with 786-0 renal, 20.6 µM.
On to `COC(=O)c1ccccc1NC(=O)/C(=N\NC(C)(C)C)C(C#N)c1nc(-c2ccc([N+](=O)[O-])cc2)cs1` (centres undefined), for which the TGI with PC-3 prostate, in the assay with SK-MEL-28 melanoma, in the assay with NCI-H23 lung, with NCI-H460 lung, in the assay on OVCAR-4 ovarian and with CAKI-1 renal was > 100 µM throughout. The TGI with CCRF-CEM leukemia, with A498 renal and in the assay with 786-0 renal was > 100 µM in each case.
For the compound `Nc1ccc2c(c1)C(=O)c1c(F)cccc1-2`, the TGI with TK-10 renal, in the assay on PC-3 prostate, in the assay on SK-MEL-28 melanoma, with NCI-H23 lung, with NCI-H460 lung and with CAKI-1 renal was > 100 µM each time. Further, the TGI with CCRF-CEM leukemia, with A498 renal and in the assay with 786-0 renal was > 100 µM each time.
Take `Cn1c(=O)cc2c3c(c(NCCCO)ccc31)C(=O)c1ccccc1-2`: the GI50 with PC-3 prostate was 3 µM; in the assay with SK-MEL-28 melanoma, 38 µM; with NCI-H23 lung it was 3.37 µM; in the assay on NCI-H460 lung it was 2310 nM; in the assay with OVCAR-4 ovarian, 7.89 µM; with CAKI-1 renal, 1790 nM. The GI50 is 3.29 µM with CCRF-CEM leukemia, 1.77 µM in the assay on A498 renal and 1530 nM in the assay with 786-0 renal. Further, the TGI in the assay with PC-3 prostate, in the assay on SK-MEL-28 melanoma, in the assay on NCI-H23 lung, with NCI-H460 lung, with OVCAR-4 ovarian and in the assay on CAKI-1 renal was > 100 µM in each case. The TGI in the assay on CCRF-CEM leukemia, in the assay on A498 renal and in the assay with 786-0 renal was > 100 µM each time.
